Non-standard residues stand in square brackets, D forms with d. No end group written: not given here. pGlu = O=C1CC[C@@H](C(=O)O)N1
Tests used:
[1] = Sweetness grading of sweetener solutions on a scale from 0 to 15 over 7 days; conditions: for Sweetness score Day 1 / Sweetness score Day 4 / Sweetness score Day 5 / Sweetness score Day 6 / Sweetness score Day 7: scale of 0-15
Method: Formulations comprising brazzein and rebaudiosides were developed and their relative sweetness was assessed. Sweetness was graded on a scale from 0 (no sweetness) to 15 (maximal sweetness) and assessed for the different formulations over a period of 7 days.

[2] = cited from earlier work
[3] = cited from earlier work; remark: listed apart in the source
[4] = Sensory grading (0 to 9) of flavor and sweetness of chocolate formulations with versus without brazzein; conditions: chocolate with Reb D, Reb E, Reb I, Reb M, with vs without brazzein; FIG. 2B
Method: Formulations comprising brazzein and chocolate were developed, and their relative flavor and sweetness were assessed. Sweetness and flavor were graded across different factors on a scale from 0 (minimum) to 9 (maximal) and assessed for the different formulations. Different factors tested include sweet taste, bitter taste, chocolate flavor, dairy flavor, sweet aromatics, and green/vegetative. The formulations tested comprise brazzein, Reb D, Reb E, Reb I, Reb M and chocolate compared to a control (chocolate comprising Reb D, Reb E, Reb I, and Reb M).
The sweetness is enhanced by having the early onset and slow fade more like sugar than chocolate that is only sweetened with Reb D, Reb E, Reb I, and Reb M. Therefore, including brazzein in food compositions, such as chocolate, enhance the flavor and sweetness of the composition.

Compound	Sweetness score Day 1 [1]	Sweetness score Day 4 [1]	Sweetness score Day 5 [1]	Sweetness score Day 6 [1]	Sweetness score Day 7 [1]	also measured
C=C1C[C@@]23CC[C@H]4[C@@](C)(CCC[C@@]4(C)C(=O)O[C@@H]4O[C@H](CO)[C@@H](O)[C@H](O[C@@H]5O[C@H](CO)[C@@H](O)[C@H](O)[C@H]5O)[C@H]4O[C@@H]4O[C@H](CO)[C@@H](O)[C@H](O)[C@H]4O)[C@@H]2CC[C@]1(O[C@@H]1O[C@H](CO)[C@@H](O)[C@H](O[C@@H]2O[C@H](CO)[C@@H](O)[C@H](O)[C@H]2O)[C@H]1O[C@@H]1O[C@H](CO)[C@@H](O)[C@H](O)[C@H]1O)C3 [Reb M at SE of 5% sucrose, Rebaudioside M]	5	5	5	5	5	–
OC[C@H]1O[C@@](CO)(O[C@H]2O[C@H](CO)[C@@H](O)[C@H](O)[C@H]2O)[C@@H](O)[C@@H]1O [Sucrose (5%), Sucrose]	5	5	5	5	5	–
PyrE-bra: major form brazzein, pyroglutamic acid at N-terminus, 54 amino acid residues ([pGlu]DKCKKVYENYPVSKCQLANQCNYDCKLDKHARSGECFYDEKRNLQCICDYCEY; cysteine pairing not given here; UniProt P56552 1-54, looked up)	–	–	–	–	–	Times sweeter than 10% sucrose solution ([2]; vs 10% sucrose solution): 500 times
brazzein: natural peptide sweetener first isolated from the fruit of Pentadiplandra brazzeana Baillon (SEQ ID NO: 12) (QDKCKKVYENYPVSKCQLANQCNYDCKLDKHARSGECFYDEKRNLQCICDYCEY; Pentadiplandra brazzeana Baillon)	–	–	–	–	–	Sweet taste after incubation at 80° C. for 4.5 hours ([3]; 80° C., 4.5 hours, pH range of 2.5-8.0): sweet taste remains; Sweet taste after incubation at 98° C. for 2 hours ([3]; 98° C., 2 hours): sweet taste remains; Effect on perceived sweetness profile of the solution ([1]; 25 ppm brazzein added to a 5% sucrose solution): slightly enhanced; Sweetness over the 7-day period ([1]; 25 ppm brazzein in 5% sucrose solution): remained stable; Effect on sweetness of a Reb M solution ([1]; brazzein added to Reb M solution with SE of 5% sucrose, compared to sucrose plus brazzein): synergistically enhanced; Astringency [4]: decreased; Bitter taste at 120 seconds [4]: decreased; Times sweeter than sucrose on a weight basis ([2]; weight basis): 500-2000 times

Reference: US20230345984A1, “SWEETENERS” (Sweegen, Inc, priority 2022, published 2023)
